Marks after values point to notes of the source that are not given here.
How the values were obtained:
Format in all cases: in vivo, human
participants with NT1 [1] = assay: Nocturnal polysomnography (PSG) sleep architecture, Phase 2 NT1 trial
Excerpt: Polysomnography (PSG) was collected at baseline and after 27 and 54 days of treatment. Sleep was manually scored following AASM guidelines; sleep metrics were extracted then computed by whole night and by quarter-night. Continuous accelerometry (Empatica EmbracePlus watch) allowed assessment of sleep in a naturalistic manner at home. Daily sleep diaries were used to capture subjective reports. Mixed effects models were fit with treatment, quarter-night, visit, and their interactions as fixed effects and random intercepts per subject. A reference PSG dataset (Vilela M, et al. J Sleep Res 2024; e14216) from CHU Montpellier (49 clinical controls and 114 patients with NT1, all drug-free) was analyzed to establish DNS characteristics of NT1.

participants with NT1 [2] = assay: Safety and tolerability (TEAEs), Phase 2 NT1 trial
Excerpt: Standard safety endpoints (e,g., treatment […] adverse events (TEAEs), physical examination findings, vital signs, 12-lead ECG measures, clinical laboratory results) for early clinical investigation were included. Further, because cardiovascular effects have been noted in nonclinical models with Compound A and OX2R agonists in general, and these effects are thought to be on-target effects, close monitoring of cardiovascular parameters, including time-matched BP measurements before and after dosing to detect any changes and potential tolerance in BP after the administration of repeat doses to participants with NT1 were included. Ambulatory blood pressure monitoring (ABPM) was also obtained to assess BP in the outpatient setting in a rigorous manner.
In addition, because liver function test (LFT) elevation cases have been observed in another OX2R agonist with structural similarity, LFTs (ALT, AST, GGT, and total bilirubin) were closely monitored.
The following doses were studied: • Compound A Dose Regimen 1:0.5 mg twice daily approximately 3 hours apart. • Compound A Dose Regimen 2:2 mg twice daily approximately 3 hours apart. • Compound A Dose Regimen 3:2 mg followed by 5 mg approximately 3 hours apart. • Compound A Dose Regimen 4:7 mg once daily (QD). • Other products required for the study: Matching placebo.
Endpoints included change from baseline to Week 8 in mean sleep onset latency on the Maintenance of Wakefulness Test (SOL-MWT; primary endpoint), ESS total score, weekly cataplexy rate (WCR), and occurrence of treatment-emergent adverse events (TEAEs).

participants with NT1 [3] = assay: Narcolepsy Severity Scale for Clinical Trials (NSS-CT), Phase 2 NT1 trial
Excerpt: Severity of NT1 symptoms can be assessed through the use of the NSS-CT. The NSS-CT is a 15-item self-administered questionnaire (total score: 0-57) that assesses the severity and consequences of the 5 major narcolepsy symptoms such as daytime sleepiness, cataplexy, hallucinations, sleep paralysis, and disrupted nighttime sleep (DNS). […] Further, the symptom number was associated with diagnosis delay, age at onset, and ESS and Beck Depression Inventory scores (Dauvilliers et al. 2020).
Methods: An analysis of exploratory data from the study was conducted to explore disease severity in individuals with ICSD-3 confirmed NT1. Eligible participants were age 18-70 years (Japan: 16-70), with an Epworth Sleepiness Scale (ESS) score>12, and >4 partial/complete episodes of cataplexy/week. Exploratory endpoints included change from baseline to Week 8 in the narcolepsy Severity Scale for clinical trials (NSS-CT), and Clinical Global Impression (CGI) and Patient Global Impression (PGI) at Week 8. The NSS-CT, a validated, self-administered 15-item scale, evaluates the severity, frequency, and impact of five main narcolepsy symptoms (higher scores indicate more severe symptoms).

participants with NT1 [4] = assay: Psychomotor vigilance test (PVT), sustained attention, Phase 2 NT1 trial
Excerpt: The psychomotor vigilance test (PVT) is validated as a clinical outcome assessment of the ability to sustain attention. The PVT is a simple reaction performance task that aims to measure sustained attention with no learning effects over repeated administration. Differences between healthy controls and patients with narcolepsy have been found on PVT performance for reaction time, accuracy, and other measures. The PVT is sensitive to the effects of total sleep loss, partial sleep restriction, naps, and circadian variation in the healthy population. The duration of test is 10 minutes.
Outcomes of this study included a performance-based test of attention, the Psychomotor Vigilance Task (PVT; administered 1 and 7 hours post first dose, assessed at baseline and weeks 4 and 8) and two assessments of EDS: the Maintenance of Wakefulness Test (MWT; administered 2, 4, 6, and 8 hours post first dose, assessed over 4 sessions) and the Epworth Sleepiness Scale (ESS; using a 7-day recall period, assessed at baseline and weeks 2, 4, and 8). At baseline, associations between attention (as measured by number of PVT lapses), and objective (MWT) and subjective (ESS) measures of EDS were computed. For PVT and MWT, covariation in change throughout the day at end of study was investigated. The effect of different Compound A doses on wakefulness and attention were compared for each outcome. […]

[5] = Compound A-treated participants

Q: What does the source list for `CCS(=O)(=O)N[C@@H]1[C@H](Cc2cccc(-c3cc(F)cc(F)c3)c2F)N(C(=O)C(C)(C)O)CC1(F)F` [Compound A, N-{(2S,3R)-4,4-difluoro-1-(2-hydroxy-2-methylpropanoyl)-2-[(2,3′,5′-trifluoro[1,1′-biphenyl]-3-yl)methyl]pyrrolidin-3-yl}ethanesulfonamide]?
A: PSG % of time in N1, change from baseline to week 8 (participants with NT1 [1]; 7 mg QD): 2.90* %; PSG % of time in N2, change from baseline to week 8 (participants with NT1 [1]; 7 mg QD): −6.10* %; PSG % of time in N3, change from baseline to week 8 (participants with NT1 [1]; 7 mg QD): −0.12%; PSG % of time in REM, change from baseline to week 8 (participants with NT1 [1]; 7 mg QD): −4.48* %; PSG % of time in WASO, change from baseline to week 8 (participants with NT1 [1]; 7 mg QD): 7.81* %; PSG No. of awakenings, change from baseline to week 8 (participants with NT1 [1]; 7 mg QD): 6.3*; PSG SOL, change from baseline to week 8 (participants with NT1 [1]; 7 mg QD): -6.8 min; PSG TST, change from baseline to week 8 (participants with NT1 [1]; 7 mg QD): −42.7* min; PSG WASO, change from baseline to week 8 (participants with NT1 [1]; 7 mg QD): 38.1* min; PSG % of time in N1, change from baseline to week 8 (participants with NT1 [1]; 0.5/0.5 mg): 1.13%; PSG % of time in N2, change from baseline to week 8 (participants with NT1 [1]; 0.5/0.5 mg): −1.75%; PSG % of time in N3, change from baseline to week 8 (participants with NT1 [1]; 0.5/0.5 mg): −0.27%; PSG % of time in REM, change from baseline to week 8 (participants with NT1 [1]; 0.5/0.5 mg): 1.28%; PSG % of time in WASO, change from baseline to week 8 (participants with NT1 [1]; 0.5/0.5 mg): −0.39%; PSG No. of awakenings, change from baseline to week 8 (participants with NT1 [1]; 0.5/0.5 mg): −2.3; PSG SOL, change from baseline to week 8 (participants with NT1 [1]; 0.5/0.5 mg): 0.4 min; PSG TST, change from baseline to week 8 (participants with NT1 [1]; 0.5/0.5 mg): -5.4 min; PSG WASO, change from baseline to week 8 (participants with NT1 [1]; 0.5/0.5 mg): -3.6 min; PSG % of time in N1, change from baseline to week 8 (participants with NT1 [1]; 2/2 mg): 1.76%; PSG % of time in N2, change from baseline to week 8 (participants with NT1 [1]; 2/2 mg): 0.65%; PSG % of time in N3, change from baseline to week 8 (participants with NT1 [1]; 2/2 mg): 0.45%; PSG % of time in REM, change from baseline to week 8 (participants with NT1 [1]; 2/2 mg): −2.43%; PSG % of time in WASO, change from baseline to week 8 (participants with NT1 [1]; 2/2 mg): −0.43%; PSG No. of awakenings, change from baseline to week 8 (participants with NT1 [1]; 2/2 mg): 2.5; PSG SOL, change from baseline to week 8 (participants with NT1 [1]; 2/2 mg): -1.9 min; PSG TST, change from baseline to week 8 (participants with NT1 [1]; 2/2 mg): 8.4 min; PSG WASO, change from baseline to week 8 (participants with NT1 [1]; 2/2 mg): -2.4 min; PSG % of time in N1, change from baseline to week 8 (participants with NT1 [1]; 2/5 mg): 3.55* %; PSG % of time in N2, change from baseline to week 8 (participants with NT1 [1]; 2/5 mg): −1.69%; PSG % of time in N3, change from baseline to week 8 (participants with NT1 [1]; 2/5 mg): −0.44%; PSG % of time in REM, change from baseline to week 8 (participants with NT1 [1]; 2/5 mg): −4.08* %; PSG % of time in WASO, change from baseline to week 8 (participants with NT1 [1]; 2/5 mg): 2.57%; PSG No. of awakenings, change from baseline to week 8 (participants with NT1 [1]; 2/5 mg): 3.2; PSG SOL, change from baseline to week 8 (participants with NT1 [1]; 2/5 mg): -3.4 min; PSG TST, change from baseline to week 8 (participants with NT1 [1]; 2/5 mg): -19.9 min; PSG WASO, change from baseline to week 8 (participants with NT1 [1]; 2/5 mg): 11.0 min; REM sleep architecture per quarter night (in-clinic PSG) (participants with NT1 [1]; week 8 (FIG. 6A)): shifted REM sleep from early to later in the night without reducing the total REM; Rate of transitions between REM and wake/N1 (participants with NT1 [1]; week 8, except in the 0.5 mg/0.5 mg cohort (FIG. 6B)): reduced the rate of sleep/wake transitions early in the night; Adverse events of mild to moderate insomnia, participants (participants with NT1 [2]; [5]): 48%; Time to resolution of most insomnia adverse events (participants with NT1 [2]; [5]): ≤ 1 week; Most common TEAEs (participants with NT1 [2]; Phase 2): urinary urgency/frequency and insomnia; Hepatotoxicity or visual disturbances (participants with NT1 [2]; Phase 2, 8 weeks): No cases of hepatotoxicity or visual disturbances were reported; Tolerability (participants with NT1 [2]; Phase 2, 8 weeks): generally well tolerated; Occurrence of TEAEs (participants with NT1 [2]; all Compound A doses (70/90 patients), 8 weeks): 77.8%; Treatment-related serious TEAEs or discontinuations due to TEAEs (participants with NT1 [2]; during the study): No treatment-related serious TEAEs or discontinuations due to TEAEs occurred; NSS-CT total score, LS mean change from baseline to Week 8 (participants with NT1 [3]; 0.5 mg/0.5 mg): −18.2; NSS-CT total score, LS mean change from baseline to Week 8 (participants with NT1 [3]; 2 mg/2 mg): −21.0; NSS-CT total score, LS mean change from baseline to Week 8 (participants with NT1 [3]; 2 mg/5 mg): −21.1; NSS-CT total score, LS mean change from baseline to Week 8 (participants with NT1 [3]; 7 mg): −17.2; PVT lapses, least squares mean differences from placebo (participants with NT1 [4]; all Compound A doses, 1 hour and 7 hours post-first dose (p<0.05)): significant; Attention (PVT lapses) (participants with NT1 [4]; week 8, all doses (all p<0.05)): improved attention across all doses

Source: patent US20250375417A1, “OREXIN RECEPTOR 2 (OX2R) AGONIST FOR USE IN NARCOLEPSY TYPE 1 (NT1)” (TAKEDA PHARMACEUTICAL COMPANY LIMITED, priority 2024, published 2025)
